Assays:
adults with NASH [1] = assay: Treatment-emergent grade 3 or 4 laboratory abnormalities, phase 2 trial
adults with NASH [2] = assay: Serum ALT, phase 2 placebo-controlled trial of GS-9450 for 4 weeks; assay type: in vivo, human; conditions: for ALT, %Change at Week 4 / ALT, Change at Week 2 / ALT, Change at Week 4: mean (SD); for Observed change from baseline to week 4 in ALT, Difference T − R / Percent change from baseline to week 4 in ALT, Difference T − R / Observed change from baseline to week 4 in ALT, Least Squares Means GS-9450 (T) / Percent change from baseline to week 4 in ALT, Least Squares Means GS-9450 (T): ANCOVA model
hepatitis C subjects = conditions: human, in vivo; cited from earlier work
adults with NASH [3] = assay: Serum AST, phase 2 placebo-controlled trial of GS-9450 for 4 weeks; assay type: in vivo, human; conditions: for AST, %Change at Week 4 / AST, Change at Week 2 / AST, Change at Week 4: mean (SD)
adults with NASH [4] = assay: Adverse events, phase 2 trial; assay type: in vivo, human
[5] = range across the GS-9450 treatment groups
[6] = 1 mg (n = 26), during treatment

CC(C)[C@@]1(C(=O)N[C@H]2CC(=O)O[C@]2(O)CF)CC(c2nccc3ccccc23)=NO1 [GS-9450]
treatment-emergent grade 3 elevated ALT, subjects (adults with NASH [1]; 1 mg, on-treatment): one subject
treatment-emergent grade 3 elevated AST, subjects (adults with NASH [1]; 5 mg): one subject
treatment-emergent grade 3 or 4 elevated serum lipase, subjects (adults with NASH [1]; 5 mg): one subject
treatment-emergent grade 3 or 4 ALT elevations during dosing (adults with NASH [1]; 5, 10, or 40 mg daily, 75 patients): No treatment-emergent grade 3 or 4 ALT elevations
ALT, %Change at Week 4 (adults with NASH [2]; 1 mg once daily): −8 (41) %
ALT, Change at Week 2 (adults with NASH [2]; 1 mg once daily): −17 (31) U/L
ALT, Change at Week 4 (adults with NASH [2]; 1 mg once daily): −14 (40) U/L
Observed change from baseline to week 4 in ALT, Difference T − R (adults with NASH [2]; 1 mg vs. pooled placebo): −11 U/L
Percent change from baseline to week 4 in ALT, Difference T − R (adults with NASH [2]; 1 mg vs. pooled placebo): −6%
Observed change from baseline to week 4 in ALT, Least Squares Means GS-9450 (T) (adults with NASH [2]; 1 mg): −15 U/L
Percent change from baseline to week 4 in ALT, Least Squares Means GS-9450 (T) (adults with NASH [2]; 1 mg): −8%
ALT, %Change at Week 4 (adults with NASH [2]; 5 mg once daily): −28 (21) %
ALT, Change at Week 2 (adults with NASH [2]; 5 mg once daily): −35 (18) U/L
ALT, Change at Week 4 (adults with NASH [2]; 5 mg once daily): −30 (26) U/L
Observed change from baseline to week 4 in ALT, Difference T − R (adults with NASH [2]; 5 mg vs. pooled placebo): −25 U/L
Percent change from baseline to week 4 in ALT, Difference T − R (adults with NASH [2]; 5 mg vs. pooled placebo): −26%
Observed change from baseline to week 4 in ALT, Least Squares Means GS-9450 (T) (adults with NASH [2]; 5 mg): −29 U/L
Percent change from baseline to week 4 in ALT, Least Squares Means GS-9450 (T) (adults with NASH [2]; 5 mg): −28%
ALT, %Change at Week 4 (adults with NASH [2]; 10 mg once daily): −30 (20) %
ALT, Change at Week 2 (adults with NASH [2]; 10 mg once daily): −37 (23) U/L
ALT, Change at Week 4 (adults with NASH [2]; 10 mg once daily): −30 (26) U/L
Observed change from baseline to week 4 in ALT, Difference T − R (adults with NASH [2]; 10 mg vs. pooled placebo): −28 U/L
Percent change from baseline to week 4 in ALT, Difference T − R (adults with NASH [2]; 10 mg vs. pooled placebo): −28%
Observed change from baseline to week 4 in ALT, Least Squares Means GS-9450 (T) (adults with NASH [2]; 10 mg): −32 U/L
Percent change from baseline to week 4 in ALT, Least Squares Means GS-9450 (T) (adults with NASH [2]; 10 mg): −31%
mean (SD) ALT decrease from baseline to week 4 (adults with NASH [2]; 40 mg): 47 (43) U/L
ALT, %Change at Week 4 (adults with NASH [2]; 40 mg once daily): −43 (19) %
ALT, Change at Week 2 (adults with NASH [2]; 40 mg once daily): −46 (46) U/L
ALT, Change at Week 4 (adults with NASH [2]; 40 mg once daily): −47 (43) U/L
Observed change from baseline to week 4 in ALT, Difference T − R (adults with NASH [2]; 40 mg vs. pooled placebo): −39 U/L
Percent change from baseline to week 4 in ALT, Difference T − R (adults with NASH [2]; 40 mg vs. pooled placebo): −40%
mean ALT change from baseline at follow-up week 2 (adults with NASH [2]; 40 mg, off treatment): 16 IU/L
mean ALT change from baseline at follow-up week 3 (adults with NASH [2]; 40 mg, off treatment): 13 IU/L
mean ALT change from baseline at follow-up week 4 (adults with NASH [2]; 40 mg, off treatment): 12 IU/L
proportion of subjects with normal ALT at week 4 (adults with NASH [2]; 40 mg, 0% at baseline, normal 43 U/L males, 34 U/L females): 35%
mean absolute ALT value at week 4 (adults with NASH [2]; 40 mg, 106 U/L at baseline): 62 U/L
Observed change from baseline to week 4 in ALT, Least Squares Means GS-9450 (T) (adults with NASH [2]; 40 mg): −43 U/L
Percent change from baseline to week 4 in ALT, Least Squares Means GS-9450 (T) (adults with NASH [2]; 40 mg): −42%
nonresponders at week 4 (decrease in ALT of <10% relative to baseline) (adults with NASH [2]; 40 mg, two subjects): 8%
time after stopping study medication until ALT reduction was offset (adults with NASH [2]; off-treatment follow-up): ≤ 1 week
ALT mean (SD) changes from baseline at week 4 (adults with NASH [2]; range across the GS-9450 groups (1-40 mg)): −14 (40) to −47 (43) U/L
drug-induced liver injury (hepatitis C subjects): episodes of drug-induced liver injury attributable to GS-9450 occurred
AST, %Change at Week 4 (adults with NASH [3]; 1 mg once daily): −2 (41) %
AST, Change at Week 2 (adults with NASH [3]; 1 mg once daily): −4 (36) U/L
AST, Change at Week 4 (adults with NASH [3]; 1 mg once daily): −8 (35) U/L
AST, %Change at Week 4 (adults with NASH [3]; 5 mg once daily): −6 (38) %
AST, Change at Week 2 (adults with NASH [3]; 5 mg once daily): −12 (16) U/L
AST, Change at Week 4 (adults with NASH [3]; 5 mg once daily): −5 (24) U/L
AST, %Change at Week 4 (adults with NASH [3]; 10 mg once daily): −16 (29) %
AST, Change at Week 2 (adults with NASH [3]; 10 mg once daily): −22 (34) U/L
AST, Change at Week 4 (adults with NASH [3]; 10 mg once daily): −12 (36) U/L
mean AST decrease from baseline to week 4 (adults with NASH [3]; 40 mg): 13 U/L
proportion of subjects with normal AST, peak at day 3 (adults with NASH [3]; 40 mg): 77%
AST, %Change at Week 4 (adults with NASH [3]; 40 mg once daily): −20 (26) %
AST, Change at Week 2 (adults with NASH [3]; 40 mg once daily): −16 (20) U/L
AST, Change at Week 4 (adults with NASH [3]; 40 mg once daily): −13 (20) U/L
proportion of subjects with normal AST at week 4 (adults with NASH [3]; 40 mg, 20% at baseline, normal 36 U/L males, 34 U/L females): 48%
mean AST within 1 week of stopping study medication (adults with NASH [3]; all GS-9450 treatment groups): modestly above baseline levels
AST mean (SD) changes by treatment week 4 (adults with NASH [3]; [5]): −5 (24) to −13 (20) U/L
AST mean changes from baseline over the first week of treatment (adults with NASH [3]; [5]): −9 (23) to −27 (29) U/L
frequency of treatment-emergent AEs during the 4-week on-treatment period (adults with NASH [4]; 1 mg): 77%
Abdominal pain (adults with NASH [4]; [6]): 1 (4) n (%)
Abdominal pain upper (adults with NASH [4]; [6]): 1 (4) n (%)
Arthralgia (adults with NASH [4]; [6]): 1 (4) n (%)
Asthenia (adults with NASH [4]; [6]): 1 (4) n (%)
Back pain (adults with NASH [4]; [6]): 1 (4) n (%)
Constipation (adults with NASH [4]; [6]): 2 (8) n (%)
Diarrhea (adults with NASH [4]; [6]): 2 (8) n (%)
Dizziness (adults with NASH [4]; [6]): 2 (8) n (%)
Dry mouth (adults with NASH [4]; [6]): 1 (4) n (%)
Dyspepsia (adults with NASH [4]; [6]): 2 (8) n (%)
Fatigue (adults with NASH [4]; [6]): 6 (23) n (%)
Gastroesophageal reflux disease (adults with NASH [4]; [6]): 0 n (%)
Headache (adults with NASH [4]; [6]): 4 (15) n (%)
Nasopharyngitis (adults with NASH [4]; [6]): 2 (8) n (%)
Nausea (adults with NASH [4]; [6]): 3 (12) n (%)
No. of subjects with at least one AE (adults with NASH [4]; [6]): 20 (77) n (%)
Pain in extremity (adults with NASH [4]; [6]): 1 (4) n (%)
Somnolence (adults with NASH [4]; [6]): 1 (4) n (%)
Total no. of events (AEs) (adults with NASH [4]; [6]): 62
frequency of treatment-emergent AEs during the 4-week on-treatment period (adults with NASH [4]; 5 mg): 85%
